Experimental data taken from patent US5399729A, “Esterified alkoxylated polyol fat substitutes having high primary ester content” (Arco Chemical Technology, L.P., priority 1993, dated 1995).

Test system: porcine pancreatic lipase
Assay: Porcine pancreatic lipase-catalyzed hydrolysis (lipase titrimetric assay, automatic pH stat method)
Format: in vitro ADME
Details: pH 8.5
Protocol: To measure the relative rate of enzyme-catalyzed hydrolysis for the esterified propoxylated glycerin, the composition was challenged by porcine pancreatic lipase. Test emulsions were prepared using the composition according to the procedures described by Naher, "Lipase Titrimetric Assay", in Methods in Enzymatic Analysis, Vol. 2, 2nd Eng. ed., p. 814 (1974), except that the composition was not neutralized prior to generation of the emulsion. A 20 mL sample of the composition was utilized. The emulsions were generated in a Waring blender equipped with a stainless steel jacketed container (300 mL capacity). The jacketed blender container was filled with an ice-in-water suspension to cool the emulsion during preparation. Hydrolysis of the composition at pH 8.50 and two enzyme levels (200 and 4000 units/assay) was monitored via the automatic pH stat method described by Naber using a Radiometic Copenhagen RTS822 recording titration system (equipped with a PHM84 pH meter and a REA 270 derivatization unit) and a 0.1N sodium hydroxide solution. The enzymatic reaction was maintained at 37° C. under a nitrogen atmosphere.
The results obtained for the esterified alkoxylated polyol obtained as described hereinabove and for olive oil and soybean oil controls are shown in Table I. The table also provides comparative data for a conventional esterified alkoxylated polyol made by reacting 8 equivalents of propylene oxide with one equivalent of glycerin under basic conditions and esterifying with soybean fatty acids; this conventional fat substitute has a low (<5%) proportion of primary ester linkages. […] This finding was surprising in view of U.S. Pat. Nos. 5,059,443 and 5,077,073, which indicate that the rate of lipase-catalyzed hydrolysis is substantially independent of the structure of the ester linkages in an esterified alkoxylated polyol fat substitute.

Soybean Oil
Hydrolysis Rate (#μeq/min for an equivalent amount of enzyme): 3.62 μeq/min | Hydrolyzability (relative to olive oil): 0.738 | Normalized Hydrolyzability (hydrolyzability compared on an equal molar basis, taking into account the concentration of ester linkages): 0.723
